Source: patent US20170119683A1, “BIOPOLYMER-ENCAPSULATED GLYCOSYL TRANSFERASE INHIBITOR COMPOSITIONS AND METHODS FOR TREATING DIABETES AND CARDIAC INDICATIONS” (The Johns Hopkins University, priority 2014, published 2017)
“Also recorded” adds a separate entry of the source.

Tests used:
[1] = system: apoE -/- mice fed a high fat and high cholesterol (HFHC) diet; assay: aortic histopathology and ultrasound imaging, atherosclerosis in apoE -/- mice fed HFHC diet; assay type: in vivo; details: FIG. 2B
adipocytes = assay: TNF induced insulin resistance in adipocytes; assay type: cell-based; details: chronic exposure to low levels of TNF
Excerpt: Additionally, adipocytes were made insulin resistant by chronic exposure to low levels of tumor necrosis factor (TNF). […] This latter patient population is estimated at 10 million in the US alone.

[2] = system: cultured human arterial cell monolayer; assay: in vitro model of wounding in cultured arterial cell monolayer; assay type: cell-based
Apolipoprotein E-/- mice = assay: Example 6: ox-LDL, GalT-V and amyloid-β (ELISA, Western) in ApoE-/- mice fed HFHC diet; assay type: in vivo
Method: Testing of the impact of D-PDMP in a mouse AD model and quantification of biomarkers in such studies was performed in the following manner. […] These mice were fed either a normal diet (control) or a high-fat high-cholesterol (HFHC) diet. While a subset of the mice fed the high-fat diet was retained as a placebo group, others were treated with 5 mg/kg (mpk) or 10 mpk of the D-PDMP drug. After euthanizing these animals, tissue and blood samples were stored for further biochemical analysis. For the quantification of the biomarkers, […] (ELISA) was used. For the measurement of ox-LDL, mouse serum was coated onto the bottom of a well. […] A secondary antibody was administered to that attached specifically to the primary antibody. This secondary antibody presented an attached reporter, allowing amounts of ox-LDL could be quantified. A substrate was bound to the reporter and fluoresced. […] ELISA was also employed for quantifying levels of GalT-V and amyloid-β, using different target-specific antibodies.

[3] = native, not encapsulated
[4] = in vivo; cited from earlier work
[5] = in vivo
[6] = 5 mpk and 10 mpk by injection, not biopolymer-encapsulated

CCCCCCCCCC(=O)N[C@H](CN1CCOCC1)[C@H](O)c1ccccc1.Cl [D-PDMP, D-threo-1-phenyl-2-decanoylamino-3-morpholino-1-propanol]
returning aortic intima-media thickness of the ascending aorta to control levels [1]: equally efficacious
TNF induced impairment in insulin signaling (adipocytes): reversed
wound healing [2]: facilitated healing
levels of GalT-V (Apolipoprotein E-/- mice; [6]): dose-dependently decreased; also recorded: decreased levels
levels of ox-LDL (Apolipoprotein E-/- mice; [6]): dose-dependently decreased; also recorded: decreased levels
amyloid-β levels (Apolipoprotein E-/- mice; 5 mpk and 10 mpk by injection, not biopolymer-encapsulated, brain tissue): dose-dependently decreased; also recorded: reduction
levels of atherosclerosis and Alzheimer's disease biomarkers (Apolipoprotein E-/- mice; ApoE -/- model mice): markedly reduced
residence time in the body of the mice [3]: about an hour
half-life [4]: approximately 52 minutes
toxicity [5]: no toxicity
